In patent US20160030530A1, “SULFORAPHANE/SULFORAPHANE PRECURSOR AND PHYTOSTEROL/PHYTOSTANOL COMPOSITIONS” (NUTRAMAX LABORATORIES, INC., priority 2013, published 2016):

Key:
[1] = tested on: chondrocytes; conditions: IL-1β-induced NF-κB pathway; cited from earlier work
[2] = tested on: broccoli sprout-derived myrosinase; test: Consumption of glucoraphanin as a function of the ascorbic acid concentration (hydrolysis by myrosinase); format: biochemical
Method: About 250 mg of broccoli seed extract containing about 12% (w/w) glucoraphanin were subjected to hydrolysis by a fixed concentration of broccoli sprout-derived myrosinase in the presence of variable concentration of ascorbic acid, ranging from 0 to 600 μmoles/Liter. The reaction mixtures were thermostated at 38° C.; aliquots were withdrawn every 15 minutes for 60 minutes, and concentration of glucoraphanin determined chromatographically. The rate of glucoraphanin consumption was interpreted as the rate its conversion to sulforaphane. Graphical representation of glucoraphanin content reduction as a function of increasing ascorbic acid concentration results in a series of linear plots; the slopes of the linear regression lines reflect the rate of glucoraphanin consumption, in μmoles/minute. It is apparent that in the presence of 600 μmoles/Liter concentration of ascorbic acid, the reaction rate increased 13-fold relative to that which proceeded in the absence of modulatory effects of ascorbic acid.

[3] = tested on: myrosinase; test: Conversion of glucoraphanin to sulforaphane in the presence of Simulated Intestinal Fluid; format: biochemical, broccoli; conditions: 0.25 to 1.00 mmol/Liter ascorbic acid, 38° C., 2 hours
Method: Simulated Intestinal Fluid (SIF) powder, a commercially supplied concentrate closely approximating the human intestinal content in terms of composition, pH and ionic strength, was used. The experiment utilized a USP Dissolution Apparatus 2 (paddles), where into six dissolution vessels 500 mL of Simulated Intestinal Fluid was dispensed, along with 150 mg of freeze-dried broccoli sprout powder as a source of myrosinase. In vessels 1-4, the concentration of ascorbic acid was varied from 0.25 to 1.00 mmol/Liter; in vessel 5, in addition to 1 mmol/Liter ascorbic acid, 3.125 g of pancreatin (8×USP) was suspended; in vessel 6, in addition to 1 mmol/Liter ascorbic acid, and 3.125 g of pancreatin (8×USP), a doubled amount of freeze-dried broccoli sprout powder (300 mg) was added. After vessels were brought to 38° C., 250 mg of glucoraphanin-rich (12%, w/w) broccoli seed extract was added to each, and the resulting suspensions were stirred at 75 RPM for 2 hours. Aliquots were withdrawn every 15 minutes, and assayed for sulforaphane.

[4] = tested on: myrosinase; test: Equimolar conversion of glucoraphanin to sulforaphane, role of ascorbic acid in modulating myrosinase activity; format: biochemical, broccoli; conditions: control sample, without ascorbic acid
Method: A two-part experiment was conducted to further elucidate the role of ascorbic acid in modulating myrosinase activity. […] A control sample contained no ascorbic acid, and the enzymatic conversion proceeded unassisted by a co-factor. PART 1. […] PART 2. While keeping the amount of broccoli seed extract fixed at 250 mg, the concentration of ascorbic acid was varied from 0.4 mmol/Liter to 3.8 mmol/Liter. The table below presents glucoraphanin and sulforaphane expressed in μmoles.

## CC[C@H](/C=C/[C@@H](C)[C@H]1CC[C@H]2[C@@H]3CC=C4C[C@@H](O)CC[C@]4(C)[C@H]3CC[C@]12C)C(C)C [stigmasterol, 3β-stigmasta-5,22,-dien-3-ol]
[1]
  Pro-inflammatory and matrix degradation mediators (MMP-3, MMP-13, ADAMTS-4, PGE2): inhibits several pro-inflammatory and matrix degradation mediators

## O=C1O[C@H]([C@@H](O)CO)C(O)=C1O [Ascorbic Acid, ascorbic acid]
[2]; 0 μM ascorbic acid, linear regression 0-60 min
  Slope (rate of glucoraphanin consumption): -0.09293 µmol/min
[2]; 0 μM ascorbic acid, time 15 min, 38° C.
  Glucoraphanin (GR) content: 92.24 µmol
[2]; 0 μM ascorbic acid, time 30 min, 38° C.
  Glucoraphanin (GR) content: 90.71 µmol
[2]; 0 μM ascorbic acid, time 45 min, 38° C.
  Glucoraphanin (GR) content: 89.44 µmol
[2]; 0 μM ascorbic acid, time 60 min, 38° C.
  Glucoraphanin (GR) content: 87.79 µmol
[2]; 600 μmoles/Liter ascorbic acid, 38° C.
  Increase of reaction rate relative to absence of ascorbic acid: 13 fold
[3]
  Yield of sulforaphane versus ascorbic acid concentration: direct correlation between larger yield of sulforaphane and higher concentrations of ascorbic acid

## C[S+]([O-])CCCC/C(=N\OS(=O)(=O)O)S[C@@H]1O[C@H](CO)[C@@H](O)[C@H](O)[C@H]1O (stereo partly drawn) [glucoraphanin, 4-methylsulfinylbutyl glucosinolate]
[4]
  Conversion of glucoraphanin to sulforaphane (amount consumed versus amount produced): equimolar conversion of glucoraphanin to sulforaphane
